ChEMBL document CHEMBL4507273 (2021)

Experiments:
[1] = molecular target: Sodium-dependent dopamine transporter (Homo sapiens, UniProt Q01959); experiment: GPCRScan assay: inhibition of DAT; parameters: radioligand conc. used [nm] 3.6 – 16.0, parental cells stable HEK
[2] = molecular target: Activin receptor type-1 (Homo sapiens) (UniProt Q04771); settings: Compound concentration 1000.0 nM
[3] = molecular target: 5'-AMP-activated protein kinase catalytic subunit alpha-1 (Homo sapiens) (UniProt Q13131); settings: Compound concentration 1000.0 nM
[4] = molecular target: Cyclin-dependent kinase 4 (Homo sapiens) (UniProt P11802); settings: Compound concentration 1000.0 nM
[5] = molecular target: Cyclin-dependent kinase 9 (Homo sapiens) (UniProt P50750); settings: Compound concentration 1000.0 nM
[6] = molecular target: Casein kinase I isoform alpha-like (Homo sapiens) (UniProt Q8N752); settings: Compound concentration 1000.0 nM
[7] = molecular target: Death-associated protein kinase 2 (Homo sapiens) (UniProt Q9UIK4); settings: Compound concentration 1000.0 nM
[8] = molecular target: Dual specificity tyrosine-phosphorylation-regulated kinase 2 (Homo sapiens) (UniProt Q92630); settings: Compound concentration 1000.0 nM
[9] = molecular target: Receptor-type tyrosine-protein kinase FLT3 (Homo sapiens) (UniProt P36888); settings: Compound concentration 1000.0 nM
[10] = molecular target: Serine/threonine-protein kinase haspin (Homo sapiens) (UniProt Q8TF76); settings: Compound concentration 1000.0 nM
[11] = molecular target: Mitogen-activated protein kinase kinase kinase kinase 1 (Homo sapiens) (UniProt Q92918); settings: Compound concentration 1000.0 nM
[12] = molecular target: Interleukin-1 receptor-associated kinase 4 (Homo sapiens) (UniProt Q9NWZ3); settings: Compound concentration 1000.0 nM
[13] = tested on: Mast/stem cell growth factor receptor Kit (Homo sapiens), P10721 [V559D]; settings: Compound concentration 1000.0 nM
[14] = molecular target: Mitogen-activated protein kinase kinase kinase 3 (Homo sapiens) (UniProt Q99759); settings: Compound concentration 1000.0 nM
[15] = molecular target: Mitogen-activated protein kinase kinase kinase kinase 3 (Homo sapiens) (UniProt Q8IVH8); settings: Compound concentration 1000.0 nM
[16] = molecular target: Mitogen-activated protein kinase kinase kinase kinase 5 (Homo sapiens) (UniProt Q9Y4K4); settings: Compound concentration 1000.0 nM
[17] = molecular target: MAP kinase-activated protein kinase 2 (Homo sapiens) (UniProt P49137); settings: Compound concentration 1000.0 nM
[18] = molecular target: MAP/microtubule affinity-regulating kinase 4 (Homo sapiens) (UniProt Q96L34); settings: Compound concentration 1000.0 nM
[19] = molecular target: MAP kinase-interacting serine/threonine-protein kinase 2 (Homo sapiens) (UniProt Q9HBH9); settings: Compound concentration 1000.0 nM
[20] = molecular target: Serine/threonine-protein kinase 26 (Homo sapiens) (UniProt Q9P289); settings: Compound concentration 1000.0 nM
[21] = molecular target: Serine/threonine-protein kinase Nek7 (Homo sapiens) (UniProt Q8TDX7); settings: Compound concentration 1000.0 nM
[22] = molecular target: Serine/threonine-protein kinase PAK 1 (Homo sapiens) (UniProt Q13153); settings: Compound concentration 1000.0 nM
[23] = molecular target: Platelet-derived growth factor receptor beta (Homo sapiens) (UniProt P09619); settings: Compound concentration 1000.0 nM
[24] = tested on: Phosphatidylinositol 4,5-bisphosphate 3-kinase catalytic subunit alpha isoform (Homo sapiens), P42336 [C420R]; settings: Compound concentration 1000.0 nM
[25] = tested on: Phosphatidylinositol 4,5-bisphosphate 3-kinase catalytic subunit alpha isoform (Homo sapiens), P42336 [E542K]; settings: Compound concentration 1000.0 nM
[26] = molecular target: Phosphatidylinositol 4,5-bisphosphate 3-kinase catalytic subunit delta isoform (Homo sapiens) (UniProt O00329); settings: Compound concentration 1000.0 nM
[27] = molecular target: Serine/threonine-protein kinase PLK1 (Homo sapiens) (UniProt P53350); settings: Compound concentration 1000.0 nM
[28] = molecular target: Protein kinase C delta type (Homo sapiens) (UniProt Q05655); settings: Compound concentration 1000.0 nM
[29] = tested on: Proto-oncogene tyrosine-protein kinase receptor Ret (Homo sapiens), P07949 [V804L]; settings: Compound concentration 1000.0 nM
[30] = molecular target: Ribosomal protein S6 kinase alpha-5 (Homo sapiens) (UniProt O75582); settings: Compound concentration 1000.0 nM
[31] = molecular target: Ribosomal protein S6 kinase alpha-6 (Homo sapiens) (UniProt Q9UK32); settings: Compound concentration 1000.0 nM
[32] = molecular target: SRSF protein kinase 3 (Homo sapiens) (UniProt Q9UPE1); settings: Compound concentration 1000.0 nM
[33] = molecular target: Serine/threonine-protein kinase 35 (Homo sapiens) (UniProt Q8TDR2); settings: Compound concentration 1000.0 nM
[34] = molecular target: Tyrosine-protein kinase Tec (Homo sapiens) (UniProt P42680); settings: Compound concentration 1000.0 nM
[35] = molecular target: 5-hydroxytryptamine receptor 5A (Homo sapiens, UniProt P47898); settings: Compound concentration 10.0 uM
D(3) dopamine receptor = D(3) dopamine receptor (Homo sapiens, UniProt P35462); settings: Compound concentration 10.0 uM
[36] = molecular target: Sodium-dependent noradrenaline transporter (Homo sapiens, UniProt P23975); settings: Compound concentration 10.0 uM
[37] = molecular target: T1, Alpha-1A adrenergic receptor (Homo sapiens) (UniProt P35348); settings: Compound concentration 10.0 uM
T1 sequence (whole entry): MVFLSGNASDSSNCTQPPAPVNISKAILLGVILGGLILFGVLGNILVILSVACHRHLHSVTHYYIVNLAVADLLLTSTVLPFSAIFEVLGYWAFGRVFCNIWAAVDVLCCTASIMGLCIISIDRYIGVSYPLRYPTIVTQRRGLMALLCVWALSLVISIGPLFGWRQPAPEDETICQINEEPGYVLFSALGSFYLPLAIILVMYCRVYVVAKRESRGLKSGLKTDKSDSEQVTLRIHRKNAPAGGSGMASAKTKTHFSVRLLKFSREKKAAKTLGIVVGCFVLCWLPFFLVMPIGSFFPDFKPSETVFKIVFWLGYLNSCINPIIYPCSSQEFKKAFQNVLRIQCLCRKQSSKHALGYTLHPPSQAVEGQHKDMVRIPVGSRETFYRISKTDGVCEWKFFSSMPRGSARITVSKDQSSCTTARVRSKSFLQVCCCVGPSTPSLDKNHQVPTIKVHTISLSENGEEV

Sequence of Sodium-dependent dopamine transporter (Q01959 whole entry): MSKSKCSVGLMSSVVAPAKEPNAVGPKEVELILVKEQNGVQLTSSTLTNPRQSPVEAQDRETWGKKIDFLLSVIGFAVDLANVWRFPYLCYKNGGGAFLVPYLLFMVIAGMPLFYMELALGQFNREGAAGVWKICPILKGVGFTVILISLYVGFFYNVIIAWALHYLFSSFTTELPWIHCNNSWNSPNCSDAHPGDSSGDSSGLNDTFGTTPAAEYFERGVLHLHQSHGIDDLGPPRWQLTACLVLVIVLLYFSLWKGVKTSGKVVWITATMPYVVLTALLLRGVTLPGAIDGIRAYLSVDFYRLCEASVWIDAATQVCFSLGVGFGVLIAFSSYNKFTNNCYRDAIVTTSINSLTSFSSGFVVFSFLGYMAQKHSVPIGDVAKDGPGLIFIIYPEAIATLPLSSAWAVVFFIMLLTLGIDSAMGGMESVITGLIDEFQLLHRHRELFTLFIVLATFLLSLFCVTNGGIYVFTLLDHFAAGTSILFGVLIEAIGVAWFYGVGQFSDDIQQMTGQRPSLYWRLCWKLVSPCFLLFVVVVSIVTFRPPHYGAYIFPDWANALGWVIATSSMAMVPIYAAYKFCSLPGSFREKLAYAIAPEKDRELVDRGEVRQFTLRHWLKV
Sequence of Serine/threonine-protein kinase Nek7 (Homo sapiens) (Q8TDX7 whole entry, looked up): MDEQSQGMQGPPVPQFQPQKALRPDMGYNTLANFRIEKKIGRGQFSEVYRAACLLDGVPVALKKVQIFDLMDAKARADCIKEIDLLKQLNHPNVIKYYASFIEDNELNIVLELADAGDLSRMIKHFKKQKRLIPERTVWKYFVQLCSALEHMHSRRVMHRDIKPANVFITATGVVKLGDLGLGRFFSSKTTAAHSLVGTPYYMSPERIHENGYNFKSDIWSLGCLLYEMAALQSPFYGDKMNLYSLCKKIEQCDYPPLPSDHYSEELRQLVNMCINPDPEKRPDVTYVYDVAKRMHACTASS
Sequence of Serine/threonine-protein kinase haspin (Homo sapiens) (Q8TF76 whole entry): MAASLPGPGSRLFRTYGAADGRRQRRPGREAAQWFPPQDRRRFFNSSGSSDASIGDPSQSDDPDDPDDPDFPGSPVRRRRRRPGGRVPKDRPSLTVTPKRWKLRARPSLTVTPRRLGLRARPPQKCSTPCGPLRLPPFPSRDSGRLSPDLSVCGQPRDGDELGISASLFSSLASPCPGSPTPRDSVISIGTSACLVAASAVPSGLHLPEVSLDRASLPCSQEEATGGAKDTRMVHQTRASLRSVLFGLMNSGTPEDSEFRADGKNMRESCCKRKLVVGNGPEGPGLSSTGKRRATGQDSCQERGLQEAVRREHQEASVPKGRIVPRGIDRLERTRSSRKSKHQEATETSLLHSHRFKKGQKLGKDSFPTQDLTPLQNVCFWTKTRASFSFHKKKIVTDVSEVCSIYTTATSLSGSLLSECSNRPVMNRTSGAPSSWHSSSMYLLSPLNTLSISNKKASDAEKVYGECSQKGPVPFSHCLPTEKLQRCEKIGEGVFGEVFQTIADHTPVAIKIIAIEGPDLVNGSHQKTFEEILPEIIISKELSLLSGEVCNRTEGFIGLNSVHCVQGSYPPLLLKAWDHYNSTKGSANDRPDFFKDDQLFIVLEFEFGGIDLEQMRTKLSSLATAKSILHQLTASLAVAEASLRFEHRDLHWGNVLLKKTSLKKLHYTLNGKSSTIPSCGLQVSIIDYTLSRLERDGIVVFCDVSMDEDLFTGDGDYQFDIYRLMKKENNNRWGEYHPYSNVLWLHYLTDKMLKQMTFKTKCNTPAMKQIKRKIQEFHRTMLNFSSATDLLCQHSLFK
Sequence of Protein kinase C delta type (Homo sapiens) (Q05655 whole entry, looked up): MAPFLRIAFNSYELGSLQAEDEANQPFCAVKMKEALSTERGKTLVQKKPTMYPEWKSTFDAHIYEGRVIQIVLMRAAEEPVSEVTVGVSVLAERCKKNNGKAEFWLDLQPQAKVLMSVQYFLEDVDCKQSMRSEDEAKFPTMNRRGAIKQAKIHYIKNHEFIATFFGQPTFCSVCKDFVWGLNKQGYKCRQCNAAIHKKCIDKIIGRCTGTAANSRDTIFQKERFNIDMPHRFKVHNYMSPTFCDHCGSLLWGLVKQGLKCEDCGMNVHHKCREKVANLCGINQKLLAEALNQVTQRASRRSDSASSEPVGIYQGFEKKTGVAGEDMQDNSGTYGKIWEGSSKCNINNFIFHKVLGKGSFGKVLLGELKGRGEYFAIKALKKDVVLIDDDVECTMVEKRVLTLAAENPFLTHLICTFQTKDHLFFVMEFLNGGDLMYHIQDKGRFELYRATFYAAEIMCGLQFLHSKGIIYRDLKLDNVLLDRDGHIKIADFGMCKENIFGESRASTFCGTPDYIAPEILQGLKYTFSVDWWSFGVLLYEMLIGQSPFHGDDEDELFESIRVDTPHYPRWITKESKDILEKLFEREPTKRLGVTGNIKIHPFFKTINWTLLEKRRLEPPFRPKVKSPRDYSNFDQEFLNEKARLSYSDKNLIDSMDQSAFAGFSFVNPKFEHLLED
Sequence of Serine/threonine-protein kinase 35 (Homo sapiens) (Q8TDR2 whole entry): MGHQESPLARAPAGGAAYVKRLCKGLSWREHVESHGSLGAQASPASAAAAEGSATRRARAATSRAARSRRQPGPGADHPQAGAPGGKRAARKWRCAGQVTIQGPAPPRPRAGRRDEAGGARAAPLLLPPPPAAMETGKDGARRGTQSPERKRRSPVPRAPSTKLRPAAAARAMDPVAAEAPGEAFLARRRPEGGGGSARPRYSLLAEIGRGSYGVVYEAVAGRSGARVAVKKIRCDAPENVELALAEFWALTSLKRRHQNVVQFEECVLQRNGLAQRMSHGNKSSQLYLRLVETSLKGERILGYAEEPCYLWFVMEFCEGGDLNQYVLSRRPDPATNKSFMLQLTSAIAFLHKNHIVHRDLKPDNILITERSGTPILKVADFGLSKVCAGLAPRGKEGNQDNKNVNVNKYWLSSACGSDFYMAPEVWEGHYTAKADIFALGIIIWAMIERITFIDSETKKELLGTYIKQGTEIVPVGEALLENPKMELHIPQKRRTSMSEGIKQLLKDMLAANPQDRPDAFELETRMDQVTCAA
Sequence of Activin receptor type-1 (Homo sapiens) (Q04771 whole entry): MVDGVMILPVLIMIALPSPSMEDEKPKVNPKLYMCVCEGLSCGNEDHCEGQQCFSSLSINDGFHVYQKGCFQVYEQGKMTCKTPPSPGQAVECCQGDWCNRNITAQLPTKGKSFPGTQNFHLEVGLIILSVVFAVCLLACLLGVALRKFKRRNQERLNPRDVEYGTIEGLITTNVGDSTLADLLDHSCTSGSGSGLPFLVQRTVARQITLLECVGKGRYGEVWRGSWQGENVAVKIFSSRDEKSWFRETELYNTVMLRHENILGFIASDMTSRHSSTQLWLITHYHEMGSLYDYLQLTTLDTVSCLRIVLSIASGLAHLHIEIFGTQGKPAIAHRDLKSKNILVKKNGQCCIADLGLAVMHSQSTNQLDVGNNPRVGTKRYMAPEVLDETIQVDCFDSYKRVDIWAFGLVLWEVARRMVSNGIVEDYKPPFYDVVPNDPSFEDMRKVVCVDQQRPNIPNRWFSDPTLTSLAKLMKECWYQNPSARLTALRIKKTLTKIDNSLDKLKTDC
Sequence of MAP kinase-interacting serine/threonine-protein kinase 2 (Homo sapiens) (Q9HBH9 whole entry, looked up): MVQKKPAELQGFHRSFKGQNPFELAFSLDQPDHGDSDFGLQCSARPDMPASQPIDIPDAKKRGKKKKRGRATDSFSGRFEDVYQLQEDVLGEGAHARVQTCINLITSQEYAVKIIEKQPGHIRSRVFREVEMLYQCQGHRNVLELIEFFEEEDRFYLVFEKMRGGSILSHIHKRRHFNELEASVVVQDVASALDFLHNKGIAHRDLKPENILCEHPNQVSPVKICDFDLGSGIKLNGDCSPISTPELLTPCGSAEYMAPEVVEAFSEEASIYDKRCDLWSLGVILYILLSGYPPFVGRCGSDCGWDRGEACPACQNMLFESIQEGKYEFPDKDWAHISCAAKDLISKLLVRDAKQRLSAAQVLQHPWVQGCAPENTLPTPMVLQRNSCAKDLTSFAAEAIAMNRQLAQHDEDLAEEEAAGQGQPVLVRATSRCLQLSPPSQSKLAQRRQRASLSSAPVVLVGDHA
Sequence of Serine/threonine-protein kinase PLK1 (Homo sapiens) (P53350 whole entry): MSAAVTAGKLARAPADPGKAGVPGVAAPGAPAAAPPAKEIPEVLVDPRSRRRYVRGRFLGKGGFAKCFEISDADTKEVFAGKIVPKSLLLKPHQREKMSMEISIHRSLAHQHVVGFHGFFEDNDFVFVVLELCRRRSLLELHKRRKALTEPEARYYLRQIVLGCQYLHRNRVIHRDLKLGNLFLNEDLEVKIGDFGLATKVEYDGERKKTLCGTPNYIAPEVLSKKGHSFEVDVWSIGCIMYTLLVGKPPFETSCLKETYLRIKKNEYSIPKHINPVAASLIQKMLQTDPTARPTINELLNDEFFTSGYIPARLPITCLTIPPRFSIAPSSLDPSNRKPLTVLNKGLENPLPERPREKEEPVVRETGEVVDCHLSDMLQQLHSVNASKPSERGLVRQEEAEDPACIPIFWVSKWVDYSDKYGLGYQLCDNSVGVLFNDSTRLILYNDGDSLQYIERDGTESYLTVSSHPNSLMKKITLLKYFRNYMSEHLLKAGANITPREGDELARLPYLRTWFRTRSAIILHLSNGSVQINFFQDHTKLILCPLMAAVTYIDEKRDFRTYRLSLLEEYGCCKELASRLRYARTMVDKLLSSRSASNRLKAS
Sequence of Casein kinase I isoform alpha-like (Homo sapiens) (Q8N752 whole entry, canonical isoform): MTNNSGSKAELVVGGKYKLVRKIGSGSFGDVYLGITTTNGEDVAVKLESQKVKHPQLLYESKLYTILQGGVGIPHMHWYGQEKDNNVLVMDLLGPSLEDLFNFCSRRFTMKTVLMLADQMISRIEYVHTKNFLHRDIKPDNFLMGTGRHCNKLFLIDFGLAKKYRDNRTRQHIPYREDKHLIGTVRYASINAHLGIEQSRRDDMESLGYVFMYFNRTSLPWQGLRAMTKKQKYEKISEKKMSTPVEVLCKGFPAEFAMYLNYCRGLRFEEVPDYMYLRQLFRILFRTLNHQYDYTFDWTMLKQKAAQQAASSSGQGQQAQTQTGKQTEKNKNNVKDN

Compound	Ki ([1]; read-out: Ki)	Ki ([1]; read-out: pKi (converted))	residual activity [2]	residual activity [3]	residual activity [4]	residual activity [5]	residual activity [6]	residual activity [7]	residual activity [8]	residual activity [9]	residual activity [10]	residual activity [11]	residual activity [12]	residual activity [13]	residual activity [14]	residual activity [15]	residual activity [16]	residual activity [17]	residual activity [18]	residual activity [19]	also measured
CNCc1ccccc1-c1csc([C@H](C)Nc2nc(C)nc3cc(OC)c(OC)cc23)c1 [BAY-294]	1670 nM	1410 nM	100%	93%	77%	100%	100%	100%	96%	93%	100%	100%	89%	100%	87%	100%	100%	80%	100%	71%	residual activity [20]: 97%; residual activity [21]: 100%; residual activity [22]: 99%; residual activity [23]: 99%; residual activity [24]: 97%; residual activity [25]: 88%; residual activity [26]: 100%; residual activity [27]: 85%; residual activity [28]: 100%; residual activity [29]: 99%; residual activity [30]: 100%; residual activity [31]: 100%; residual activity [32]: 89%; residual activity [33]: 100%; residual activity [34]: 100%; inhibition [35]: 78.1%; inhibition (D(3) dopamine receptor): 64.8%; inhibition [36]: 69.3%; inhibition [37]: 83.4%
CNCc1ccccc1-c1csc([C@@H](C)Nc2nc(C)nc3cc(OC)c(OC)cc23)c1 [BAY-293]	522 nM	479 nM	100%	100%	88%	100%	100%	100%	92%	88%	98%	83%	76%	100%	83%	99%	100%	83%	100%	63%	residual activity [20]: 99%; residual activity [21]: 100%; residual activity [22]: 97%; residual activity [23]: 91%; residual activity [24]: 81%; residual activity [25]: 80%; residual activity [26]: 75%; residual activity [27]: 80%; residual activity [28]: 98%; residual activity [29]: 73%; residual activity [30]: 100%; residual activity [31]: 100%; residual activity [32]: 84%; residual activity [33]: 91%; residual activity [34]: 100%; inhibition [35]: 68.5%; inhibition (D(3) dopamine receptor): 56.8%; inhibition [36]: 84%; inhibition [37]: 71.6%
